Results reported in patent US20090176817A1, “Method of Treatment of Diarrhea-Predominant Irritable Bowel Syndrome in a Subject” (priority 2005, published 2009).

System: diarrhea-predominant IBS subjects
Experiment: Study S241.3.011: weekly diary questions on adequate relief
Format: in vivo, human
Procedure: Study S241.3.011 was a Phase III, double-blind, placebo-controlled, randomized, multinational study to investigate the safety and efficacy of 2 mg TID of cilansetron for a period of 12 weeks followed by a rerandomized, placebo-controlled four-week treatment period, in diarrhea-predominant IBS subjects. The study was conducted in six countries including the US. A total of 2115 subjects consented to participate, and 770 subjects were randomized. A total of 746 subjects were analyzed for efficacy and 755 subjects were analyzed for safety. Diagnosis and main criteria for inclusion were IBS subjects satisfying the Rome I criteria (1992); the diarrhea predominant sub-population of the Rome II criteria; and a minimum abdominal pain/discomfort, stool frequency and consistency determined during the run-in period. Subjects were treated with cilansetron 2 mg tablets given orally TID or matching placebo tablets given orally TID for 12 weeks followed by a rerandomized, placebo-controlled four-week treatment period.
The primary efficacy parameter was the number of months that a subject was a responder for IBS symptoms (abdominal pain, abdominal discomfort, abnormal bowel habits) over the 12-week treatment period. A responder for a month (monthly responder) was defined as a subject who answered the weekly question with “yes” at least twice for that month. The two main secondary efficacy parameters were the monthly responder rates based on the “adequate relief” questions regarding abdominal pain/discomfort and abnormal bowel habits during the 12-week treatment period. The overall response rate and responder rate for the weekly diary questions on adequate relief at each month and all months, the adequate relief rate, the number of subjects with adequate relief by week, daily diary questions, IBS-QOL scores, and the interruption of activities were also assessed. Safety was evaluated by physical examination, ECG, vital signs, laboratory evaluations, concomitant medications, and AEs.
Subjects who were initially randomized to the cilansetron 2 mg TID group and rerandomized to placebo, will be referred to as the C/P treatment group; subjects initially randomized to the placebo group and rerandomized to placebo will be referred to as the P/P treatment group; the P/C and C/C treatment group nomenclature follow the same principle. Of the 591 subjects who completed the three-month treatment period, 576 subjects were rerandomized and thus divided into the following treatment groups: 150 subjects in the C/C treatment group, 140 subjects in the C/P treatment group, 136 subjects in the P/C treatment group, and 150 subjects in the P/P treatment group. Of the 576 subjects rerandomized, a higher percentage of subjects in the C/C treatment group (99%) completed the study compared with the C/P (95%), P/C (93%), and the P/P (95%) treatment groups.
Studies S24 1.3.OO6, S24 1.3.0 1 1, and S24 1.3.009 used the following efficacy measurements: • The subjects answered the following three questions with “yes” or “no” using a phone diary at the end of each week: • a) During the last week, did you experience adequate relief of your IBS symptoms, such as abdominal pain, abdominal discomfort, abnormal bowel habits? • b) During the last week, did you experience adequate relief of your abdominal pain and/or discomfort? • c) During the last week, did you experience adequate relief of your abnormal bowel habits? • The subjects rated the following symptoms using the phone diary at the end of each day: • abdominal pain/discomfort (five-point scale); • stool consistency (seven-point Bristol Stool Scale); • stool frequency (number of bowel movements each day); • urgency (five-point scale); • straining (yes or no); • feeling of incomplete defecation (yes or no); • bloating or feeling of abdominal distension (five-point scale). • In Studies S241 A006 and S241.3.009, subjects completed the IBS-QOL Survey at Baseline (Day 1) and at the end of treatment. […]

[1] = 2 mg TID, monthly LOCF, ITT N = 377
[2] = 2 mg TID, three-month treatment period, monthly LOCF, ITT N = 377
[3] = 2 mg TID, three-month treatment period, observed case, ITT N = 377
[4] = Baseline BMI: <30 kg/m^2, three-month treatment period, monthly LOCF, ITT, 2 mg TID

With Cc1nccn1C[C@H]1CCc2c(c3cccc4c3n2CCC4)C1=O [Cilansetron, (R)-(−)-4,5,6,8,9,10-hexahydro-10-[(2-methyl-1H-imidazol-1-yl)methyl]-11H-pyrido-[3,2,1-jk]-carbazol-11-one] the “Responders for one month, IBS symptoms” value (2 mg TID, 3 months) was 14%, the “Responders for one month, abdominal pain/discomfort” value (2 mg TID, 3 months) was 12% and the “Responders for one month, abnormal bowel habits” value (2 mg TID, 3 months) was 13%. For the same compound, the “Responders for three months, IBS symptoms” value (2 mg TID, 3 months) was 39%, the “Responders for three months, abdominal pain/discomfort” value (2 mg TID, 3 months) was 42% and the “Responders for three months, abnormal bowel habits” value (2 mg TID, 3 months) was 40%. For the same compound, the “Responders for two months, IBS symptoms” value (2 mg TID, 3 months) was 19%, the “Responders for two months, abdominal pain/discomfort” value (2 mg TID, 3 months) was 19% and the “Responders for two months, abnormal bowel habits” value (2 mg TID, 3 months) was 18%. For the same compound, the “Responders for zero months, IBS symptoms” value (2 mg TID, 3 months) was 28%, the “Responders for zero months, abdominal pain/discomfort” value (2 mg TID, 3 months) was 27% and the “Responders for zero months, abnormal bowel habits” value (2 mg TID, 3 months) was 30%. The “Responder rate, adequate relief of IBS symptoms, Each month of Months 1 to 3” value [1] was 148 (39) n (%), the “Responder rate, adequate relief of IBS symptoms, Month 1” value [1] was 216 (57) n (%) and the “Responder rate, adequate relief of IBS symptoms, Month 2” value [1] was 214 (57) n (%). For the same compound, the “Responder rate, adequate relief of IBS symptoms, Month 3” value [1] was 208 (55) n (%), the “Responder rate, adequate relief of abdominal pain/discomfort, Each month of Months 1 to 3” value [1] was 159 (42) n (%) and the “Responder rate, adequate relief of abdominal pain/discomfort, Month 1” value [1] was 217 (58) n (%). The “Responder rate, adequate relief of abdominal pain/discomfort, Month 2” value [1] was 229 (61) n (%), the “Responder rate, adequate relief of abdominal pain/discomfort, Month 3” value [1] was 220 (58) n (%) and the “Responder rate, adequate relief of abnormal bowel habits, Each month of Months 1 to 3” value [1] was 149 (40) n (%). The “Responder rate, adequate relief of abnormal bowel habits, Month 1” value [1] was 214 (57) n (%), the “Responder rate, adequate relief of abnormal bowel habits, Month 2” value [1] was 209 (55) n (%) and the “Responder rate, adequate relief of abnormal bowel habits, Month 3” value [1] was 206 (55) n (%). For the same compound, the “Subjects who were responders for One month, adequate relief of IBS symptoms” value [2] was 54 (14) n (%), the “Subjects who were responders for One month, adequate relief of abdominal pain/discomfort” value [2] was 45 (12) n (%) and the “Subjects who were responders for One month, adequate relief of abnormal bowel habits” value [2] was 50 (13) n (%). For the same compound, the “Subjects who were responders for Three months, adequate relief of IBS symptoms” value [2] was 148 (39) n (%), the “Subjects who were responders for Three months, adequate relief of abdominal pain/discomfort” value [2] was 159 (42) n (%) and the “Subjects who were responders for Three months, adequate relief of abnormal bowel habits” value [2] was 149 (40) n (%). The “Subjects who were responders for Two months, adequate relief of IBS symptoms” value [2] was 70 (19) n (%), the “Subjects who were responders for Two months, adequate relief of abdominal pain/discomfort” value [2] was 72 (19) n (%) and the “Subjects who were responders for Two months, adequate relief of abnormal bowel habits” value [2] was 66 (18) n (%). The “Subjects who were responders for Zero months, adequate relief of IBS symptoms” value [2] was 105 (28) n (%), the “Subjects who were responders for Zero months, adequate relief of abdominal pain/discomfort” value [2] was 101 (27) n (%) and the “Subjects who were responders for Zero months, adequate relief of abnormal bowel habits” value [2] was 112 (30) n (%). The “Overall responder rate, adequate relief of IBS symptoms” value [3] was 206 (55) n (%), the “Overall responder rate, adequate relief of abdominal pain/discomfort” value [3] was 221 (59) n (%) and the “Overall responder rate, adequate relief of abnormal bowel habits” value [3] was 203 (54) n (%). For the same compound, the “Median adequate relief rate, IBS symptoms” value (3 months) was 0.58, the “Median adequate relief rate, abdominal pain/discomfort” value (3 months) was 0.58 and the “Median adequate relief rate, abnormal bowel habits” value (3 months) was 0.58. The “Overall responder rate, IBS symptoms” value (3 months, observed case, ITT) was 55%, the “Overall responder rate, abdominal pain/discomfort” value (3 months, observed case, ITT) was 59% and the “Overall responder rate, abnormal bowel habits” value (3 months, observed case, ITT) was 54%. The “Responder rate, abdominal pain/discomfort” value (Argentina and Chile) was 65%, the “Number of months a subject was a responder: One month (Abdominal pain/discomfort)” value [4] was 30 (11) n (%) and the “Number of months a subject was a responder: One month (Abnormal bowel habits)” value [4] was 33 (12) n (%). For the same compound, the “Number of months a subject was a responder: One month (IBS symptoms)” value [4] was 38 (14) n (%), the “Number of months a subject was a responder: Three months (Abdominal pain/discomfort)” value [4] was 113 (42) n (%) and the “Number of months a subject was a responder: Three months (Abnormal bowel habits)” value [4] was 104 (39) n (%). The “Number of months a subject was a responder: Three months (IBS symptoms)” value [4] was 107 (40) n (%), the “Number of months a subject was a responder: Two months (Abdominal pain/discomfort)” value [4] was 50 (19) n (%) and the “Number of months a subject was a responder: Two months (Abnormal bowel habits)” value [4] was 51 (19) n (%). The “Number of months a subject was a responder: Two months (IBS symptoms)” value [4] was 48 (18) n (%), the “Number of months a subject was a responder: Zero months (Abdominal pain/discomfort)” value [4] was 73 (27) n (%) and the “Number of months a subject was a responder: Zero months (Abnormal bowel habits)” value [4] was 78 (29) n (%).
